Results on two molecules are retold here after patent publication US20170275650A1, “ENDOSOMAL ESCAPE DOMAINS FOR […] OF MACR[…] CELLS” (priority 2014, published 2017).

Where a SMILES comes first, the peptide text is derived from it.

The test system of data set [1] is GFPβ1-10 expressing H1299c#G3 cells. Type of data set: cell-based, human. Particulars: FACS FSC/SSC and viable cell number relative to untreated control cells. An excerpt: Cell morphology and cell viability.
The test system is the same in data set [2]. As to the kind of experiment: split GFP fluorescence complementation transduction assay (FACS). Format: cell-based, human. The following applies: dose-dependent comparison, up to 60 μM, FACS (FIG. 4, 5). The method, then: (§1) Peptide transduction. All transduction experiments were performed in 48-well plates. An optimized protocol was established. First, 15,000 or 20,000 cells were plated in each well. Next day, the indicated peptides were pipetted into eppendorf tubes. Transduction buffer (60% OptiMEM and 40% PBS) was added to peptide (100 μl total volume), directly mixed by pipetting up and down five times and then immediately transferred to cells. All pipetting steps were done in a laminar flow cell culture hood and standardized to 15 min for each plate before transferring the plate of cells to a 37° C. CO2 incubator for 1.5 h before addition of 500 μl DMEM supplemented with 10% FBS and another incubation round for 3.5 h in the 37° C. CO2 incubator (alternatively cells were incubated 2 h with peptides and another 4 h with DMEM, 10% FBS (FIG. 8b, c, d). For the transduction time-course, cells were incubated with peptides in transduction buffer until indicated time-points. All cells were trypzinized and collected in 250 μl OptiMEM without phenol red and analyzed by FACS (GFP, FSC/SSC). 4000 viable cells were analyzed per sample. Data is presented as fold change in fluorescence compared to non-treated cells.
To address these problems, the disclosure provides a self-assembling, bimolecular or split GFP fluorescence complementation system that was originally designed to tag and monitor proteins. GFP is composed of 11 β-strands that form a barrel structure allowing for peptidyl backbone cyclization and formation of a fluorescent chromophore. […] Importantly, co-incubation of GFPβ1-10 with the GFPβ11 peptide in trans efficiently reconstitutes GFP fluorescent chromophore bond and GFP fluorescence (FIG. 1a). To study PTD-mediated delivery, cell lines were generated that constitutively expressed the non-fluorescent GFPβ1-10 fragment and treated them in trans with a GFPβ11-PTD/CPP peptide to restore GFP fluorescence.
Cell clones of various human cell lines constitutively expressing the non-fluorescent large GFPβ1-10 fragment, including H1299 non-small cell lung carcinoma, HaCaT immortalized keratinocytes, and MDA-MB-231 and MCF7 breast carcinomas, and assayed for reconstituted intracellular GFP fluorescence after treatment with transducible GFPβ11-PTD/CPP peptides by FACS (FIG. 1a). Starting with human H1299 cells, known to be a good model for PTD/CPP-mediated uptake, two GFPβ1-10 expressing clones were generated (c#G3 and c#G4) (FIG. 8a). GFPβ1-10 expressing H1299c#G3 cells were treated for 1.5 h with increasing amounts of transducible GFPβ11-TAT peptide (0-60 μM), followed by an additional 3.5 h in DMEM supplemented with 10% FBS. At 5 h post-addition of GFPβ11-TAT peptide, cells were trypsinized and live cell assayed by FACS.

For data set [3], the system named is GFPβ1-10 expressing HaCatc#G7 cells. The data set is described as above. Format: cell-based, human. The following applies: increasing amounts of peptide (FIG. 6). The method, then: (§2) Cell culture, transfections and immunoblots. H1299, MCF7, MDA-MB-231 and HaCat cells were maintained in DMEM supplemented with 10% FBS, 100 U/ml penicillin, and 100 U/ml streptomycin. H1299c#G3, H1299c#G4, MCF7c#G7, MDA-MB-231c#G3 and HaCaTc#G7 cells were generated by transfecting cells with pCMV-mGFPβ1-10 and subsequently grown under hygromycin selection. Hygromycin resistant cells were then treated with GFPβ11-TAT and directly after, individual, transiently fluorescent clonal cells were isolated by FACS sorting. Clones were expanded and tested for stable GFPβ1-10 expression. H1299c#G3, H1299c#G4, MCF7c#G7, MDA-MB-231c#G3 and HaCaTc#G7 cells were maintained in DMEM supplemented with 10% FBS, 100 U/ml penicillin, 100 U/ml streptomycin and 80 or 100 ug/ml hygromycin. Transient transfections of siRNA or plasmid DNA were performed using Lipofectamine 2000 according to standard protocol. Immunblots were performed using 10% SDS-PAGE, semi-dry transfer (BioRad) and developed on ChemiDoc Imager (BioRad).
as §1, with “CO2 incubator for 1.5 h before addition of 500 μl DMEM supplemented with 10% FBS and another incubation round for 3.5 h in the 37° C.” left out

Data set [4] relates to GFPβ1-10 expressing MCF7c#G7 cells. The description is as above. Type of data set: cell-based, human. The following applies: increasing amounts of peptide (FIG. 6). As for the experimental part:
as §2
as §1, with “CO2 incubator for 1.5 h before addition of 500 μl DMEM supplemented with 10% FBS and another incubation round for 3.5 h in the 37° C.” left out

The subject of data set [5] is GFPβ1-10 expressing MDA-MB-231c#G3 cells. The data set is described as above. Type of data set: cell-based, human. Particulars: increasing amounts of peptide (FIG. 6). The method, then: as §2
as §1, with “CO2 incubator for 1.5 h before addition of 500 μl DMEM supplemented with 10% FBS and another incubation round for 3.5 h in the 37° C.” left out

Data set [6] concerns GFPβ1-10 expressing MCF7c#G7 cells. Particulars: increasing amounts of peptide (FIG. 6).
Description: (§3) Cell morphology and cell viability. Cell morphology was determined by FACS analysis of FSC and SSC. Gates were set manually for viable cells using untreated control cells as reference and the fraction of viable cells compared to non-viable cells was determined for each sample. Data are presented as the relative difference compared to non-treated control cells. Viable cells per sample were determined by measuring number of viable cells that were analyzed per second by FACS. Gates for viable cells were set manually using untreated control cells as reference. Data are presented as the relative difference compared to untreated control cells.
Data set [7] relates to GFPβ1-10 expressing MDA-MB-231c#G3 cells. Particulars: increasing amounts of peptide (FIG. 6).
Description: as §3
The test system of data set [8] is GFPβ1-10 expressing HaCatc#G7 cells. The following applies: increasing amounts of peptide (FIG. 6).
Description: as §3

As for `CC[C@H](C)[C@H](NC(=O)CNC(=O)[C@H](C)NC(=O)[C@H](C)NC(=O)[C@H](CC(N)=O)NC(=O)[C@@H](NC(=O)[C@H](Cc1ccc(O)cc1)NC(=O)[C@H](CCC(=O)O)NC(=O)[C@H](Cc1c[nH]cn1)NC(=O)[C@H](CC(C)C)NC(=O)[C@@H](NC(=O)[C@H](CCSC)NC(=O)[C@H](Cc1c[nH]cn1)NC(=O)[C@H](CC(=O)O)NC(=O)[C@@H](N)CCCNC(=N)N)C(C)C)C(C)C)C(=O)N[C@H](C(=O)NCC(=O)NCC(=O)N[C@@H](CO)C(=O)NCC(=O)NCC(=O)N[C@@H](CCCNC(=N)N)C(=O)N[C@@H](CCCCN)C(=O)N[C@@H](CCCCN)C(=O)N[C@@H](CCCNC(=N)N)C(=O)N[C@@H](CCCNC(=N)N)C(=O)N[C@@H](CCC(N)=O)C(=O)N[C@@H](CCCNC(=N)N)C(=O)N[C@@H](CCCNC(=N)N)C(=O)N[C@@H](CCCNC(=N)N)C(N)=O)[C@@H](C)O` [GFPβ11-TAT] (H-RDHMVLHEYVNAAGITGGSGGRKKRRQRRR-NH2), the “cytotoxicity / morphological changes” value in data set [1] was “did not display any cytotoxicity or morphological changes”.

Take “RDHMVLHEYVNAAGIT-GGSGGC-(S-S)-CGG-RKKRRQRRR-(PEG)6-GFWFG (disulfide bond, (PEG)6-GFWFG) [GFPβ11-(S-S)-TAT-P6-GFWFG]”: the “GFP fluorescence / transduction compared to parental GFPβ11-(S-S)-TAT” value in data set [2] was “four-fold increase”. Besides, the “cytotoxicity / morphological changes” value in data set [1] is reported as “absence of any detectable cytotoxicity”. For the same molecule, the “GFP complementation compared to parental GFPβ11-(S-S)-TAT control peptide” value in data set [3], in data set [4] and in data set [5] was “significantly enhanced GFP complementation” throughout. The cytotoxicity result in data set [6], in data set [7] and in data set [8] was “Low to no cytotoxicity” each time.
